Results taken from PMC7479006, “Effect of high-fat diet on the pharmacokinetics and safety of flumatinib in healthy Chinese subjects” (Cancer Chemotherapy and Pharmacology, 2020).
Read-outs that look alike come from different tables or passages of the source.

Legend:
[1] = preclinical studies; tissue drug concentration higher than plasma concentration; cited from earlier work
[2] = Biopharmaceutics Classification System (BCS) class; type: physicochemical; conditions: based on the BCS Guidance of the year 2000
[3] = beagles, oral administration, preclinical studies; cited from earlier work
[4] = set-up: method as in PMID 20703259; conditions: doses in the range of 200–1000 mg; cited from earlier work
[5] = Safety evaluation (adverse events, NCI CTCAE v4.03) after a single oral 400 mg dose of flumatinib mesylate; type: in vivo, human (healthy Chinese subjects); set-up: TEAE, Incidence rate / TEAE related to the study drug, Incidence rate / SAE related to the study drug, Incidence rate / TEAE related to death, Incidence rate / TEAE related to withdrawal, Incidence rate: unit not given here
Protocol: All subjects who participated in the study were included in the safety analysis. Safety was evaluated by vital signs, physical examination, ECG, laboratory examination, adverse events (AEs), and combined medication. All adverse events that occurred during the trial were classified into mild, moderate and severe levels based on NCI CTCAE v4.03.

[6] = rats, oral administration, preclinical studies; cited from earlier work
[7] = Pharmacokinetics of flumatinib, M1 and M3 in plasma after a single oral 400 mg dose of flumatinib mesylate tablets, fasting vs high-fat diet (LC-MS/MS, non-compartmental); conditions: for AUC0-∞ LSGM ratio high-fat diet/fasting (%) (90% CI) / AUC0–t LSGM ratio high-fat diet/fasting (%) (90% CI) / Cmax LSGM ratio high-fat diet/fasting (%) (90% CI): N = 11, single oral 400 mg; for AUC(0-inf) / AUC(0-t) / Cmax / MRT / Tmax / half-life: human, po, 400 mg; for Tmax: Tmax median(range)
Protocol: The subjects were randomized 24 h in advance in one of the two following groups. Group A: at least 10 h after fasting, oral flumatinib administration of 400 mg (2 tablets, day 1, first dose); the washout period was 14 days, half an hour after high-fat diet (timed from the start of diet) oral flumatinib administration of 400 mg (2 tablets, day 15,second dose). Subjects in group B followed the opposite administration sequence from those in group A. In groups A and B, the high-fat diet contained 800 ~ 1000Kcal (about 50% from fat) (meal composition is detailed Table 1).
Blood samples for pharmacokinetic (PK) evaluation were collected at 0 h before the initiation of dosing (pre-dose), and at 0.5, 1, 1.5, 2, 2.5, 3, 4, 5, 6, 8, 10, 12, 24, 48, 72, and 96 h after dosing. Blood samples were centrifuged at 2000g for 10 min at 4 ℃. Centrifugation was completed within 60 min after sample collection. The plasma was stored at − 70 °C for further analysis. Plasma concentrations of flumatinib and its main metabolites (M1 and M3) were determined using liquid chromatography-mass spectrometry (LC–MS/MS) [20].
Phoenix WinNonlin Version 7.0 (Pharsight Corporation, Sunnyvale, CA, USA) software was used to calculate the pharmacokinetic parameters (Tmax, Cmax, AUC0–t, AUC0–∞, t1/2, V/F, CL/F) of flumatinib and its main metabolites using a non-compartmental method (NCA module). Linear Up Log Down trapezoidal method was used for AUC calculation. The BE module of WinNonLin was used to analyze AUC0–t, AUC0–∞, and Cmax of flumatinib in fed and fasting states after logarithmic conversion. The treatment group (fasting, high-fat diet), the treatment sequence (A, B), and treatment phase were fixed effects in the model, and the subjects nested in the sequence were random effects. The adjusted mean difference (fasting/high-fat diet) and its 90% confidence interval estimated by the model, were taken as the negative number to obtain the corresponding PK parameter geometric mean ratio (postprandial/fasting), to estimate its 90% confidence interval, and to evaluate the effect of a high-fat diet on the pharmacokinetics of flumatinib.

[8] = Fasting, the first period (N = 6)
[9] = Fasting, the second period (N = 5)
[10] = High-fat diet, the first period (N = 6)
[11] = High-fat diet, the second period (N = 6)
[12] = Fasting (N = 11), mean ± SD, single oral 400 mg, listed as Flumatinib
[13] = High-fat diet (N = 12), mean ± SD, single oral 400 mg
[14] = High-fat diet (N = 12), mean ± SD, single oral 400 mg, listed as Flumatinib

## Cc1ncc(NC(=O)c2ccc(CN3CCN(C)CC3)c(C(F)(F)F)c2)cc1Nc1nccc(-c2cccnc2)n1 [flumatinib]
[1]
  Tissue distribution: widely distributed in tissues
[2]
  BCS class: BCS Class III
[3]
  Time to maximum blood concentration: about 5 h
[4]
  Dose relation of Cmax and AUC0–t: linearly related to doses
[5]; [8]
  SAE related to the study drug, Incidence rate: 0.0
  SAE related to the study drug, Number: 0
  SAE related to the study drug, Time: 0
  TEAE related to death, Incidence rate: 0.0
  TEAE related to death, Number: 0
  TEAE related to death, Time: 0
  TEAE related to the study drug, Incidence rate: 83.3
  TEAE related to the study drug, Number: 5
  TEAE related to the study drug, Time: 11
  TEAE related to withdrawal, Incidence rate: 0.0
  TEAE related to withdrawal, Number: 0
  TEAE related to withdrawal, Time: 0
  TEAE, Incidence rate: 100.0
  TEAE, Number: 6
  TEAE, Time: 14
[5]; [9]
  SAE related to the study drug, Incidence rate: 0.0
  SAE related to the study drug, Number: 0
  SAE related to the study drug, Time: 0
  TEAE related to death, Incidence rate: 0.0
  TEAE related to death, Number: 0
  TEAE related to death, Time: 0
  TEAE related to the study drug, Incidence rate: 60.0
  TEAE related to the study drug, Number: 3
  TEAE related to the study drug, Time: 4
  TEAE related to withdrawal, Incidence rate: 0.0
  TEAE related to withdrawal, Number: 0
  TEAE related to withdrawal, Time: 0
  TEAE, Incidence rate: 60.0
  TEAE, Number: 3
  TEAE, Time: 5
[5]; Fasting, total (N = 11)
  SAE related to the study drug, Incidence rate: 0.0
  SAE related to the study drug, Number: 0
  SAE related to the study drug, Time: 0
  TEAE related to death, Incidence rate: 0.0
  TEAE related to death, Number: 0
  TEAE related to death, Time: 0
  TEAE related to the study drug, Incidence rate: 72.7
  TEAE related to the study drug, Time: 15
  TEAE related to withdrawal, Incidence rate: 0.0
  TEAE related to withdrawal, Number: 0
  TEAE related to withdrawal, Time: 0
  TEAE, Incidence rate: 81.8
  TEAE, Time: 19
[5]; [10]
  SAE related to the study drug, Incidence rate: 0.0
  SAE related to the study drug, Number: 0
  SAE related to the study drug, Time: 0
  TEAE related to death, Incidence rate: 0.0
  TEAE related to death, Number: 0
  TEAE related to death, Time: 0
  TEAE related to the study drug, Incidence rate: 50.0
  TEAE related to the study drug, Number: 3
  TEAE related to the study drug, Time: 6
  TEAE related to withdrawal, Incidence rate: 16.7
  TEAE related to withdrawal, Number: 1
  TEAE related to withdrawal, Time: 1
  TEAE, Incidence rate: 100.0
  TEAE, Number: 6
  TEAE, Time: 18
[5]; [11]
  SAE related to the study drug, Incidence rate: 0.0
  SAE related to the study drug, Number: 0
  SAE related to the study drug, Time: 0
  TEAE related to death, Incidence rate: 0.0
  TEAE related to death, Number: 0
  TEAE related to death, Time: 0
  TEAE related to the study drug, Incidence rate: 66.7
  TEAE related to the study drug, Number: 4
  TEAE related to the study drug, Time: 6
  TEAE related to withdrawal, Incidence rate: 0.0
  TEAE related to withdrawal, Number: 0
  TEAE related to withdrawal, Time: 0
  TEAE, Incidence rate: 66.7
  TEAE, Number: 4
  TEAE, Time: 7
[5]; High-fat diet, total (N = 12)
  SAE related to the study drug, Incidence rate: 0.0
  SAE related to the study drug, Number: 0
  SAE related to the study drug, Time: 0
  TEAE related to death, Incidence rate: 0.0
  TEAE related to death, Number: 0
  TEAE related to death, Time: 0
  TEAE related to the study drug, Incidence rate: 58.3
  TEAE related to the study drug, Time: 12
  TEAE related to withdrawal, Incidence rate: 8.3
  TEAE related to withdrawal, Number: 1
  TEAE related to withdrawal, Time: 1
  TEAE, Incidence rate: 83.3
  TEAE, Time: 25
[5]; fasting group
  TEAE incidence: 81.8%
  TEAE related to the study drug, incidence: 72.7%
[5]; high-fat diet group
  TEAE incidence: 83.3%
  TEAE related to the study drug, incidence: 58.3%
[5]; single oral dose of 400 mg, fasting or high-fat diet
  Safety and tolerability: safe and well tolerated
[6]
  Time to maximum blood concentration: about 5 h
[7]; Fasting (N = 11), mean ± SD, single oral 400 mg
  CL/F: 399 ± 229 L/h
[7]; [12]
  CL/F: 661 ± 380 L/h
  V/F: 11,700 ± 5130 L
[7]; [13]
  CL/F: 661 ± 380 L/h
  V/F: 11700 ± 5130 L
[7]; [14]
  CL/F: 399 ± 229 L/h
  V/F: 8470 ± 4130 L
[7]
  AUC0-∞ LSGM ratio high-fat diet/fasting (%) (90% CI): 166.87%
  AUC0–t LSGM ratio high-fat diet/fasting (%) (90% CI): 167.43%
  Cmax LSGM ratio high-fat diet/fasting (%) (90% CI): 281.65%
[7]; listed as Flumatinib
  AUC0-∞ LSGM ratio high-fat diet/fasting (%) (90% CI): 167 (143, 194) %
  AUC0–t LSGM ratio high-fat diet/fasting (%) (90% CI): 167 (144, 195) %
  Cmax LSGM ratio high-fat diet/fasting (%) (90% CI): 282 (226, 351) %
[7]; plasma, AUC0-∞ (least-square geometric mean), Fasting (N = 11), food-effect analysis, single oral 400 mg
  AUC(0-inf): 710 ng·h/mL
[7]; plasma, AUC0-∞ (least-square geometric mean), High-fat diet (N = 11), food-effect analysis, single oral 400 mg
  AUC(0-inf): 1180 ng·h/mL
[7]; plasma, AUC0-∞, Fasting (N = 11), mean ± SD, single oral 400 mg
  AUC(0-inf): 847 ± 572 ng·h/mL
[7]; plasma, AUC0-∞, High-fat diet (N = 12), mean ± SD, single oral 400 mg
  AUC(0-inf): 1280 ± 586 ng·h/mL
[7]; plasma, AUC0–t (least-square geometric mean), Fasting (N = 11), food-effect analysis, single oral 400 mg
  AUC(0-t): 696 ng·h/mL
[7]; plasma, AUC0–t (least-square geometric mean), High-fat diet (N = 11), food-effect analysis, single oral 400 mg
  AUC(0-t): 1170 ng·h/mL
[7]; plasma, AUC0–t, Fasting (N = 11), mean ± SD, single oral 400 mg
  AUC(0-t): 832 ± 566 ng·h/mL
[7]; plasma, AUC0–t, High-fat diet (N = 12), mean ± SD, single oral 400 mg
  AUC(0-t): 1260 ± 582 ng·h/mL
[7]; plasma, Cmax (least-square geometric mean), Fasting (N = 11), food-effect analysis, single oral 400 mg
  Cmax: 43.7 ng/mL
[7]; plasma, Cmax (least-square geometric mean), High-fat diet (N = 11), food-effect analysis, single oral 400 mg
  Cmax: 123 ng/mL
[7]; plasma, Cmax, Fasting (N = 11), mean ± SD, single oral 400 mg
  Cmax: 50.7 ± 32.5 ng/mL
[7]; plasma, Cmax, High-fat diet (N = 12), mean ± SD, single oral 400 mg
  Cmax: 132 ± 54.5 ng/mL
[7]; plasma, Fasting (N = 11), mean ± SD, single oral 400 mg
  MRT: 17.2 ± 3.66 h
[7]; plasma, High-fat diet (N = 12), mean ± SD, single oral 400 mg
  MRT: 19.2 ± 3.37 h
[7]; plasma, Fasting (N = 11), single oral 400 mg
  Tmax: 2.5 h
[7]; plasma, High-fat diet (N = 12), single oral 400 mg
  Tmax: 3 h
[7]; plasma, t1/2, Fasting (N = 11), mean ± SD, single oral 400 mg
  half-life: 13.3 ± 2.52 h
[7]; plasma, t1/2, High-fat diet (N = 12), mean ± SD, single oral 400 mg
  half-life: 15.5 ± 4.67 h
[7]; single oral 400 mg
  Increase in the exposure when taken with food: 67%
[7]; single oral 400 mg, plasma
  Increase of AUC0–∞ after high-fat diet over fasted state: 1.6 fold
  Increase of Cmax after high-fat diet over fasted state: nearly tripled
